Data on 4 substances can be found in publication PMC3078936 (PLoS ONE, 2011).

For this assay, the target named is T1, DYNLL1 (Homo sapiens, UniProt P63167).
T1 construct: 6xHis (N); made in house; host or cells: E. coli BL21(DE3)Star
Kind of assay: Isothermal titration calorimetry of peptide/protein binding to DYNLL1. The following applies: PBS + 3 mM 2-mercaptoethanol pH 7.4, 299 K; for ΔH: ITC binding enthalpy; for -TΔS: ITC entropy term; for Kd: ITC, 15 µM DYNLL1 in the cell, A + B to AB model, dimeric peptides reach the dynamic range limit of ITC. How it is done:
Binding parameters of the in vitro evolved Ac-[…] and naturally evolved Ac-DKSTQTD consensus peptides were determined by isothermal titration calorimetry (ITC). Synthetic peptides were used and N-terminal acetylation was applied to better mimic a non-terminal peptide motif by avoiding the positively charged N-terminus. In order to elucidate the particular contribution of Val-5 to the binding affinity, several control peptides were produced. The in vitro evolved Val-5 was replaced with a glycine (Gly-5) to assess side chain function. In a further truncated variant the entire amino acid residue was replaced with an acetate group (Ac-5) to assess the function of the amide group at position −5. The same variations of Val-5, Gly-5 or Ac-5 were also introduced in the framework of the naturally evolved consensus peptide. DYNNL1 binding of all six variants was analyzed by ITC. In all measurements the stoichiometry of binding was 1∶1 (2 peptides binding to one homodimer DYNNL1). The binding was enthalpy-driven and was accompanied with unfavorable entropy change. Ac-5 versions of both the natural and the in vitro evolved consensus peptide had binding affinities in the micromolar range. Replacing the acetyl group with Gly-5 led to a tenfold affinity increase with both peptides.
All peptides and DYNLL1 were dialyzed overnight in PBS buffer supplemented with 3 mM 2-mercaptoethanol (pH 7.4). A typical binding experiment involved 15 µM DYNLL1 in the cell and 30–40 injections varying between of 3–5 µl peptide solution. For each experiment the thermodynamic parameters were determined at 299 K. We used a VP-ITC instrument from Microcal and the data were fitted by the software package Origin 5.0 (OriginLab) using the simple A + B to AB binding model. The signal from an initial 2 µl injection was eliminated. The equilibration time between injections was 900 sec.
(ITC needs no label: the signal is the heat of the interaction.)

T1 sequence (P63167 whole entry): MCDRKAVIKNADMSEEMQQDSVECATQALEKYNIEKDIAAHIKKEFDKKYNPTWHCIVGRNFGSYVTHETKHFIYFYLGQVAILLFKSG

For “dimeric-GSVSRGTQTE [recombinant GCN4 leucine zipper-fused, dimerized in vitro evolved consensus peptide]”, the ΔH was -15.5 kcal/mol, the “-TΔS” value was below 4.21 kcal/mol and the Kd was below 7 nM.
The corresponding values for “dimeric-GSGSRGTQTE [recombinant GCN4 leucine zipper-fused, dimerized Gly-5 in vitro evolved peptide]” are -16.6 kcal/mol, below 4.92 kcal/mol and below 3 nM.
The corresponding values for “dimeric-GSVDKSTQTD [recombinant GCN4 leucine zipper-fused, dimerized Val-5 natural consensus peptide]” are -21 kcal/mol, below 10 kcal/mol and below 9 nM.
The corresponding values for “dimeric-GSGDKSTQTD [recombinant GCN4 leucine zipper-fused, dimerized Gly-5 natural consensus peptide]” are -18.2 kcal/mol, below 7.03 kcal/mol and below 7 nM.

One may read the Kd as the free concentration of one partner at which half of the binding sites on the other are occupied at equilibrium, for simple one-to-one binding.
